Assay results reported in ChEMBL document CHEMBL3797052 (Eur J Med Chem, 2016).
The source made the active and inactive calls. The calls are words filed in the database; no cut-off is given here.

Columns and labels:
[1] = molecular target: CYP2C19 (Homo sapiens, UniProt P33261); experiment: Inhibition of recombinant human CYP2C19 assessed as remaining enzyme activity at 10 uM after 5 mins in presence of NADP by fluorescence plate reader analysis; assay type: ADME; conditions: read-out: Activity
[2] = Antiproliferative activity against human SF268 cells assessed as growth inhibition after 48 hrs by sulforhodamine B assay; assay type: functional; conditions: SF-268, 48 h
[3] = test system: M14; experiment: Antiproliferative activity against human M14 cells assessed as cell growth at 10^-8 M after 48 hrs by sulforhodamine B assay; assay type: functional; conditions: M14, 48 h, read-out: Activity
[4] = Antiproliferative activity against human UACC62 cells assessed as cell growth at 10^-4 M after 48 hrs by sulforhodamine B assay; assay type: functional; conditions: UACC-62, 48 h, read-out: Activity
[5] = Antiproliferative activity against human HCC2998 cells assessed as cell growth at 10^-8 M after 48 hrs by sulforhodamine B assay; assay type: functional; conditions: HCC 2998, 48 h, read-out: Activity
[6] = Antiproliferative activity against human Caki1 cells assessed as cell growth at 10^-7 M after 48 hrs by sulforhodamine B assay; assay type: functional; conditions: CAKI-1, 48 h, read-out: Activity
[7] = Antiproliferative activity against human SW620 cells assessed as cell growth at […] M after 48 hrs by sulforhodamine B assay; assay type: functional; conditions: SW-620, 48 h, read-out: Activity
[8] = test system: MDA-MB-468; experiment: Antiproliferative activity against human MDA-MB-468 cells assessed as growth inhibition after 48 hrs by sulforhodamine B assay; assay type: functional; conditions: MDA-MB-468, 48 h; for CC50: read-out: LC50 (the source's name)
[9] = test system: A498; experiment: Antiproliferative activity against human A498 cells assessed as growth inhibition after 48 hrs by sulforhodamine B assay; assay type: functional; conditions: A498, 48 h
[10] = Antiproliferative activity against human SW620 cells assessed as growth inhibition after 48 hrs by sulforhodamine B assay; assay type: functional; conditions: SW-620, 48 h; for CC50: read-out: LC50 (the source's name)
[11] = test system: T47D; experiment: Antiproliferative activity against human T47D cells assessed as cell growth at 10^-7 M after 48 hrs by sulforhodamine B assay; assay type: functional; conditions: read-out: Activity
[12] = Antiproliferative activity against human HOP62 cells assessed as growth inhibition after 48 hrs by sulforhodamine B assay; assay type: functional; conditions: HOP-62, 48 h
[13] = Antiproliferative activity against human SNB19 cells assessed as cell growth at 10^-7 M after 48 hrs by sulforhodamine B assay; assay type: functional; conditions: SNB-19, 48 h, read-out: Activity
[14] = Antiproliferative activity against human SNB75 cells assessed as cell growth at 10^-7 M after 48 hrs by sulforhodamine B assay; assay type: functional; conditions: SNB-75, 48 h, read-out: Activity
[15] = test system: NCI-H226; experiment: Antiproliferative activity against human NCI-H226 cells assessed as cell growth at 10^-4 M after 48 hrs by sulforhodamine B assay; assay type: functional; conditions: NCI-H226, 48 h, read-out: Activity
[16] = Antiproliferative activity against human HL-60(TB) cells assessed as cell growth at 10^-8 M after 48 hrs by sulforhodamine B assay; assay type: functional; conditions: HL-60, 48 h, read-out: Activity
[17] = test system: Serine/threonine-protein kinase B-raf (Homo sapiens), P15056 [V600E]; experiment: Inhibition of BRAF V600E mutant assessed as reduction in ERK phosphorylation in human A375P cells after 24 hrs by Western blot analysis; assay type: cell-based
[18] = molecular target: Aurora kinase A (Homo sapiens) (UniProt O14965); experiment: Inhibition of human Aurora-A at 10 uM measured after 40 mins by scintillation counting
[19] = molecular target: Epidermal growth factor receptor (Homo sapiens) (UniProt P00533); experiment: Inhibition of human EGFR at 10 uM measured after 40 mins by scintillation counting
[20] = molecular target: Hepatocyte growth factor receptor (Homo sapiens) (UniProt P08581); experiment: Inhibition of human C-Met at 10 uM measured after 40 mins by scintillation counting
[21] = molecular target: Tyrosine-protein kinase ABL1 (Homo sapiens) (UniProt P00519); experiment: Inhibition of human ABL1 at 10 uM measured after 40 mins by scintillation counting
[22] = test system: Serine/threonine-protein kinase B-raf (Homo sapiens), P15056 [V600E]; experiment: Inhibition of BRAF V600E mutant assessed as reduction in MEK phosphorylation in human A375P cells after 24 hrs by Western blot analysis; assay type: cell-based
[23] = molecular target: Activin receptor type-1-like (Homo sapiens) (UniProt P37023); experiment: Inhibition of human ALK1 at 10 uM measured after 40 mins by scintillation counting
[24] = molecular target: Serine/threonine-protein kinase B-raf (Homo sapiens) (UniProt P15056); experiment: Inhibition of human BRAF at 10 uM measured after 40 mins by scintillation counting
[25] = molecular target: Fibroblast growth factor receptor 3 (Homo sapiens) (UniProt P22607); experiment: Inhibition of human FGFR3 at 10 uM measured after 40 mins by scintillation counting
[26] = molecular target: Proto-oncogene tyrosine-protein kinase Src (Homo sapiens) (UniProt P12931); experiment: Inhibition of human C-Src at 10 uM measured after 40 mins by scintillation counting

CYP2C19, sequence (P33261 whole entry): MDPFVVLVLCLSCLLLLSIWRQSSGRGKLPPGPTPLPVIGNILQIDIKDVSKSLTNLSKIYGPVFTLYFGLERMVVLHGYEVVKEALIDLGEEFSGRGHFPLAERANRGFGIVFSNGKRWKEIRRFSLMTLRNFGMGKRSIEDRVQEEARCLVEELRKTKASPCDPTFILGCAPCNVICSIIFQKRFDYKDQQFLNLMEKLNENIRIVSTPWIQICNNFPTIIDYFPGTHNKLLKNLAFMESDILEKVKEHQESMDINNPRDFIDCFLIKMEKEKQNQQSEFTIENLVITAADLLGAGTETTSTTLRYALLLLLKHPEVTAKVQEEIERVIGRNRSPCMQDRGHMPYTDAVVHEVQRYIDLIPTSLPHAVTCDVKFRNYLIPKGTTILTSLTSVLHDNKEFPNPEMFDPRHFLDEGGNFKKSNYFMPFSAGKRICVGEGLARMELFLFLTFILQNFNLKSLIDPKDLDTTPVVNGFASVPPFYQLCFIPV
Serine/threonine-protein kinase B-raf (Homo sapiens), P15056 [V600E], sequence (P15056 whole entry V600E): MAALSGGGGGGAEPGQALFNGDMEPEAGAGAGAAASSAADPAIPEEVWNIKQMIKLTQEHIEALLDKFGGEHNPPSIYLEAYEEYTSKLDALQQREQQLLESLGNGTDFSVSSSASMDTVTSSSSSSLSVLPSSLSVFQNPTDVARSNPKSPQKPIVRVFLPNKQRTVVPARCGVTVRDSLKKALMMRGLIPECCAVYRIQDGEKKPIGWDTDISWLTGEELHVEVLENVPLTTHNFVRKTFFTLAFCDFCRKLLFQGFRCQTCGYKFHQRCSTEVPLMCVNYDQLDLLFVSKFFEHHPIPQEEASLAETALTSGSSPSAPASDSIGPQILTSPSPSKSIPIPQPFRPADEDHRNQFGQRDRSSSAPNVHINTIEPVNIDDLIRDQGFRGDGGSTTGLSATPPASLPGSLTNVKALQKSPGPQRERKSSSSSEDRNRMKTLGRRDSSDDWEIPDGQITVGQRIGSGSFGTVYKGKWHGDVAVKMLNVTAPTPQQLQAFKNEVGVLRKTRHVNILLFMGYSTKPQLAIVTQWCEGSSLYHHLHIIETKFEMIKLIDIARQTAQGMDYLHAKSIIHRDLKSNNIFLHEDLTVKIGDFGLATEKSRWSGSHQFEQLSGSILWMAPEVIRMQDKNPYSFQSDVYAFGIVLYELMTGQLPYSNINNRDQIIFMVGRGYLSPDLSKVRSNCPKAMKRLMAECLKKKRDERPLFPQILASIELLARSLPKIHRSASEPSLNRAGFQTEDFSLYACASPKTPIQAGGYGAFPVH
Hepatocyte growth factor receptor (Homo sapiens), sequence (P08581 whole entry): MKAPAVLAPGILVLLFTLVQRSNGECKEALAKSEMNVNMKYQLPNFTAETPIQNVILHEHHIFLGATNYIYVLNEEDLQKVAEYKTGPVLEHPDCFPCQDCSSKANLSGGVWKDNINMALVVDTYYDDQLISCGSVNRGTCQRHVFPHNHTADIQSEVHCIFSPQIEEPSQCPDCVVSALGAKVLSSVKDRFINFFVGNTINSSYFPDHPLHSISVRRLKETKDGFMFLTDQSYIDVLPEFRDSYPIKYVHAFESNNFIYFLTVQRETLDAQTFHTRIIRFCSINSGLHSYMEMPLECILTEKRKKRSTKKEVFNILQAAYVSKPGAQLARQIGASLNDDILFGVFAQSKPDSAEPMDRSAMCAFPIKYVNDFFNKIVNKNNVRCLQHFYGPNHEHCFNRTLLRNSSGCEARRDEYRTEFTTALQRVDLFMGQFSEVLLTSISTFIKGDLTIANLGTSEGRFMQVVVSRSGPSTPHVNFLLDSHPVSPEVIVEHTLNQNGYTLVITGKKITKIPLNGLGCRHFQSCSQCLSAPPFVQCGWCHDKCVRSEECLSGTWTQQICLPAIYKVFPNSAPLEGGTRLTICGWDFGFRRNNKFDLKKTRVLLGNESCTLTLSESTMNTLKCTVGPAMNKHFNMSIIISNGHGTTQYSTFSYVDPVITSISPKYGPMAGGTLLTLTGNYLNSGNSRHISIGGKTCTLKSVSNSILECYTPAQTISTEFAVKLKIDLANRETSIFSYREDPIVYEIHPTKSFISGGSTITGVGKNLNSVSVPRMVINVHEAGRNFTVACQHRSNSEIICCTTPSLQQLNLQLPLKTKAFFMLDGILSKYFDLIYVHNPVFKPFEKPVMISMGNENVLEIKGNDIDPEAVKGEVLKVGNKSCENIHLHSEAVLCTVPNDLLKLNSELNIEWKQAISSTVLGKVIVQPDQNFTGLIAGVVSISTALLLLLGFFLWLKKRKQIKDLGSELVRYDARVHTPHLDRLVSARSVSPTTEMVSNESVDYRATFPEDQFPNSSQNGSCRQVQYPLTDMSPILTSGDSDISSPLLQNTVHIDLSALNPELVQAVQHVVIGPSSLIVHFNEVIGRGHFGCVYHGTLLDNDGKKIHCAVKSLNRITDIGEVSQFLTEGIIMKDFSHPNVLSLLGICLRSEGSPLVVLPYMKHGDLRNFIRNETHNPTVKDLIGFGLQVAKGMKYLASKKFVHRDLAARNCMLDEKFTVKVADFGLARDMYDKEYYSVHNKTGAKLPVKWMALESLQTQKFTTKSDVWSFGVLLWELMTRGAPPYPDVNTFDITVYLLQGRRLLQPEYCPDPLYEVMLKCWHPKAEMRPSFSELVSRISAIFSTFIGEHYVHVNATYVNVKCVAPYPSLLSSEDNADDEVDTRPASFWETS
Aurora kinase A (Homo sapiens), sequence (O14965 whole entry): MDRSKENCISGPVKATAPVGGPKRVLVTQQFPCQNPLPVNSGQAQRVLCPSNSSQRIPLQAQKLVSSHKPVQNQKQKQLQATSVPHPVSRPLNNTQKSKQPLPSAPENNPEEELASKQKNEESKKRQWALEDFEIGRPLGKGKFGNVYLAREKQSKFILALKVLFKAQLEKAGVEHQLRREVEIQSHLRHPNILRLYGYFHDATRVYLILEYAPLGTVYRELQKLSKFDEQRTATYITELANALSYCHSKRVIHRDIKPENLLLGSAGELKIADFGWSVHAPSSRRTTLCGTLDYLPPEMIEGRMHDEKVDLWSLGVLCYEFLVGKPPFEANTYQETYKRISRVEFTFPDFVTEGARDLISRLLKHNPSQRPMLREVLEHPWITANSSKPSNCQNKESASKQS
Epidermal growth factor receptor (Homo sapiens), sequence (P00533 whole entry): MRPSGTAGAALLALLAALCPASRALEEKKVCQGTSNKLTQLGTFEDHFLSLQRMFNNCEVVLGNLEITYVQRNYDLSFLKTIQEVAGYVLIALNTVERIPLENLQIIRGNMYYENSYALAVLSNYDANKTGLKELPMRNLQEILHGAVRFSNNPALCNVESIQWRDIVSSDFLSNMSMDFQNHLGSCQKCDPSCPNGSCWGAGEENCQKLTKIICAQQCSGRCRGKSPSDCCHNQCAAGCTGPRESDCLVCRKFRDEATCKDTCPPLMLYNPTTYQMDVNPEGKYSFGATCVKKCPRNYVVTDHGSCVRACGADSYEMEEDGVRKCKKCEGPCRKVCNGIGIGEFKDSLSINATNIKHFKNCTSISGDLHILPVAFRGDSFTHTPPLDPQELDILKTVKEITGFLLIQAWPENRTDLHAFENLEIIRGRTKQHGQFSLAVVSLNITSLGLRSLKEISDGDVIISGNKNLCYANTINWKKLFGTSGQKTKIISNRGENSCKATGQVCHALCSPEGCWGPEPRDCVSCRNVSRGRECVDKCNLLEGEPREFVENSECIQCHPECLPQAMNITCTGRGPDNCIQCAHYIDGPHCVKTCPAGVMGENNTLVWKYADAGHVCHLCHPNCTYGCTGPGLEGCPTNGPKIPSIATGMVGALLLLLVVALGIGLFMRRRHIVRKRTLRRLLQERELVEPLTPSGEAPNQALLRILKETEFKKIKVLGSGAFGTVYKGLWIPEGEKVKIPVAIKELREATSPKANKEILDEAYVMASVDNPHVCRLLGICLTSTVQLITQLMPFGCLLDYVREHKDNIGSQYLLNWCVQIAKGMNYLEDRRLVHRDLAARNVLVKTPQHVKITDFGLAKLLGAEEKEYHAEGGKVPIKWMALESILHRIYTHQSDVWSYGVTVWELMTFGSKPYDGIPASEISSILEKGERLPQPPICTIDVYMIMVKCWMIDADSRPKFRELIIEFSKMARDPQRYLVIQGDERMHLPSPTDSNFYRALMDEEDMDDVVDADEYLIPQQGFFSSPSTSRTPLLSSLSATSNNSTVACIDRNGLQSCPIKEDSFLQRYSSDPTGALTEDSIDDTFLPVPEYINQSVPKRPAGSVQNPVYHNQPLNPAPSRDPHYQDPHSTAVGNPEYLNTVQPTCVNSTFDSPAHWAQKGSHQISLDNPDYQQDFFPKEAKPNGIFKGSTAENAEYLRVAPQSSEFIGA
Fibroblast growth factor receptor 3 (Homo sapiens), sequence (P22607 23-806 limits assumed): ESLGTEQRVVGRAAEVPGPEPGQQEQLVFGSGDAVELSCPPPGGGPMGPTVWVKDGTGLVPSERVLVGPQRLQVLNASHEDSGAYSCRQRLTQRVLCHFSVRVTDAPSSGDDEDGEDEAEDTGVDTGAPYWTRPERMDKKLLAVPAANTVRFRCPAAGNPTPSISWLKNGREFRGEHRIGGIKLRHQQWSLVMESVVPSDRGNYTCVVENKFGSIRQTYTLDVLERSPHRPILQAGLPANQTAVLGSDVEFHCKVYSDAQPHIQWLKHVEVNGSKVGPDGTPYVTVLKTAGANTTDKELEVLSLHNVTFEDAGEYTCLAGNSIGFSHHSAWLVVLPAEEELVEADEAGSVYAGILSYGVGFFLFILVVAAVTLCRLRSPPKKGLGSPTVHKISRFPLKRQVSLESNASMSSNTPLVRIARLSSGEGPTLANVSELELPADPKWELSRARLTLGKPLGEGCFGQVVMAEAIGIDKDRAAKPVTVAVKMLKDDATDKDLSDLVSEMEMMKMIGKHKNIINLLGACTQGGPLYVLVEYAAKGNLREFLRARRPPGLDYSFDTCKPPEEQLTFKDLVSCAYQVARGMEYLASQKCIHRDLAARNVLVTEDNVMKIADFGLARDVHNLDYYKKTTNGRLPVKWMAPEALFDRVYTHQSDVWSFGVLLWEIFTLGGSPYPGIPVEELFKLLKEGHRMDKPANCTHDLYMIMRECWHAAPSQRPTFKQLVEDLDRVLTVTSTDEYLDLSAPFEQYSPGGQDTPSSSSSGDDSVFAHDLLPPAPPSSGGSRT
Serine/threonine-protein kinase B-raf (Homo sapiens), sequence (P15056 whole entry): as the sequence (P15056 whole entry V600E) above, with E600V counted along it

Structure (SMILES)	activity at 5 min, 10 µM [1] [%]	GI50 [2] [µM]	LC50 (concentration killing 50% of cells) [2] [µM]	TGI [2] [µM]	growth at 0.01 µM [3] [%]	growth at 100 µM [4] [%]	growth at 0.01 µM [5] [%]	growth at 0.1 µM [6] [%]	growth at 0.01 µM [7] [%]	GI50 [8] [µM]	TGI [8] [µM]	CC50 [8] [µM]	GI50 [9] [µM]	LC50 (concentration killing 50% of cells) [9] [µM]	TGI [9] [µM]	GI50 [10] [µM]	TGI [10] [µM]	CC50 [10] [µM]	GI50 [12] [µM]	TGI [12] [µM]	further results
CNC(=O)c1cc(Oc2ccc3nc(NC(=O)Nc4ccc(Cl)c(C(F)(F)F)c4)sc3c2)ccn1	79.9	2.34	> 100	16.4	90	26	107	93	100	1.36	4.1	> 100	2.49	> 100	12.2	2.99	> 100	> 100	1.94	4.74	growth at 0.1 µM [11]: 92%; LC50 [12]: > 100 µM; growth at 0.1 µM [13]: 100%; growth at 0.1 µM [14]: 81%; growth at 100 µM [15]: -25%; growth at 0.01 µM [16]: 101%
CNC(=O)c1cc(Oc2ccc(NC(=O)Nc3ccc(Cl)c(C(F)(F)F)c3)cc2)ccn1 [SORAFENIB]		2.51		10						2	7.94	39.8	2.51		6.31	2.51	12.6	39.8	2	7.94	
CNC(=O)c1cc(Oc2ccc3nc(NC(=O)Nc4cc(C(F)(F)F)cc(C(F)(F)F)c4)sc3c2)ccn1	70.1	1.27	6.44	2.86	91	-73	93	94	102	0.399	1.75	6.08	1.02	5.97	2.47	1.56	3.29	6.97	1.15	2.8	inhibition [17]: Active; inhibition [18]: < 40%; inhibition [19]: < 40%; inhibition [20]: < 40%; inhibition [21]: < 40%; growth at 0.1 µM [11]: 89%; LC50 [12]: 6.79 µM; inhibition [22]: Dose-dependent effect; growth at 0.1 µM [13]: 111%; growth at 0.1 µM [14]: 82%; inhibition [23]: < 40%; growth at 100 µM [15]: -52%; inhibition [24]: < 40%; inhibition [25]: < 40%; inhibition [26]: < 40%; growth at 0.01 µM [16]: 110%
CNC(=O)c1cc(Oc2ccc3nc(NC(=O)c4cc(C(F)(F)F)cc(C(F)(F)F)c4)sc3c2)ccn1	10.3	2.66	> 100	17	99	-56	105	91	97	3.18	14.2	> 100	1.45	30.9	4.51	7.56	63.8	> 100	3.36	10.8	growth at 0.1 µM [11]: 88%; LC50 [12]: 51.6 µM; growth at 0.1 µM [13]: 103%; growth at 0.1 µM [14]: 77%; growth at 100 µM [15]: -59%; growth at 0.01 µM [16]: 92%
CNC(=O)c1cc(Oc2ccc3nc(NC(=O)Nc4ccc(Cl)c(Cl)c4)sc3c2)ccn1	83.6	1.98	8.97	4.21	93	-20	98	99	102	1.97	5.09	> 100	2.93	> 100	6.64	8.11	> 100	> 100	2.24	4	growth at 0.1 µM [11]: 106%; LC50 [12]: 7.15 µM; growth at 0.1 µM [13]: 110%; growth at 0.1 µM [14]: 83%; growth at 100 µM [15]: -59%; growth at 0.01 µM [16]: 102%
